Results taken from ChEMBL document CHEMBL1201862, “PubChem BioAssay data set” (2004).
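Tested at 5 concentrations; 48 h exposure; 96-well plates; endpoints linearly interpolated, else capped at highest concentration. Here, GI50 denotes the concentration required for 50% inhibition of growth.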 Active and inactive are the calls of the source. Rule as the data show it: active = GI50 up to about 1.1 µM and inactive = higher.

Experiments:
Experiment in all cases: NCI tumour cell line growth inhibition, 48 h
RXF 393 = test system: RXF 393
A498 = test system: A498
SNB-75 = test system: SNB-75
SNB-78 = test system: SNB-78
HT-29 = test system: HT-29
RPMI-8226 = test system: RPMI-8226
NCI-H460 = test system: NCI-H460
Hs-578T = test system: Hs-578T
SN12C = test system: SN12C
HL-60 = test system: HL-60
DU-145 = test system: DU-145
NCI-H522 = test system: NCI-H522
UACC-257 = test system: UACC-257
K562 = test system: K562
U-251 = test system: U-251
SK-OV-3 = test system: SK-OV-3
NCI-H226 = test system: NCI-H226
Malme-3M = test system: Malme-3M
XF498 = test system: XF498
UO-31 = test system: UO-31
NCI-H23 = test system: NCI-H23
UACC-62 = test system: UACC-62
SK-MEL-28 = test system: SK-MEL-28
OVCAR-5 = test system: OVCAR-5
COLO 205 = test system: COLO 205
HCC 2998 = test system: HCC 2998
OVCAR-4 = test system: OVCAR-4
SK-MEL-5 = test system: SK-MEL-5
BT-549 = test system: BT-549
OVCAR-3 = test system: OVCAR-3
NCI/ADR-RES = test system: NCI/ADR-RES
LOX IMVI = test system: LOX IMVI
OVCAR-8 = test system: OVCAR-8
T47D = test system: T47D
LXFL 529 = test system: LXFL 529
SW-620 = test system: SW-620
PC-3 = test system: PC-3
HOP-92 = test system: HOP-92
IGROV-1 = test system: IGROV-1
MDA-N = test system: MDA-N
CAKI-1 = test system: CAKI-1
KM12 = test system: KM12
HOP-18 = test system: HOP-18
DMS-273 = test system: DMS-273
M19-MEL = test system: M19-MEL
TK-10 = test system: TK-10
HCT-116 = test system: HCT-116
M14 = test system: M14
HCT-15 = test system: HCT-15
SR = test system: SR
SF-268 = test system: SF-268
A549 = test system: A549
SNB-19 = test system: SNB-19
MOLT-4 = test system: MOLT-4
RXF 631 = test system: RXF 631
MDA-MB-231 = test system: MDA-MB-231
786-0 = test system: 786-0
SF-539 = test system: SF-539
MCF7 = test system: MCF7
CCRF-CEM = test system: CCRF-CEM
KM-20L2 = test system: KM-20L2
SF-295 = test system: SF-295
ACHN = test system: ACHN
EKVX = test system: EKVX
HOP-62 = test system: HOP-62
SK-MEL-2 = test system: SK-MEL-2
MDA-MB-435 = test system: MDA-MB-435

COc1ccc2nc3cc(Cl)ccc3c(Nc3ccccc3-c3ccccc3Nc3c4ccc(Cl)cc4nc4ccc(OC)cc34)c2c1
GI50 (RXF 393): 14.9 µM (inactive) | GI50 (A498): > 56.5 µM (inactive) | GI50 (SNB-75): 14.7 µM (inactive) | GI50 (SNB-78): > 100 µM (inactive) | GI50 (HT-29): 10.5 µM (inactive) | GI50 (RPMI-8226): 8.17 µM (inactive) | GI50 (NCI-H460): 33.6 µM (inactive) | GI50 (Hs-578T): 27.7 µM (inactive) | GI50 (SN12C): 32.2 µM (inactive) | GI50 (HL-60): 2.66 µM (inactive) | GI50 (DU-145): 69.3 µM (inactive) | GI50 (NCI-H522): 8.43 µM (inactive) | GI50 (UACC-257): 27.5 µM (inactive) | GI50 (K562): 4.63 µM (inactive) | GI50 (U-251): 37.3 µM (inactive) | GI50 (SK-OV-3): > 75.7 µM (inactive) | GI50 (NCI-H226): > 41.1 µM (inactive) | GI50 (Malme-3M): 35.2 µM (inactive) | GI50 (XF498): > 39.4 µM (inactive) | GI50 (UO-31): 26.9 µM (inactive) | GI50 (NCI-H23): 21.7 µM (inactive) | GI50 (UACC-62): 27.5 µM (inactive) | GI50 (SK-MEL-28): 41.8 µM (inactive) | GI50 (OVCAR-5): 37.8 µM (inactive) | GI50 (COLO 205): 32.6 µM (inactive) | GI50 (HCC 2998): 31.6 µM (inactive) | GI50 (OVCAR-4): 17.4 µM (inactive) | GI50 (SK-MEL-5): 18.1 µM (inactive) | GI50 (BT-549): 15.9 µM (inactive) | GI50 (OVCAR-3): 45.4 µM (inactive) | GI50 (NCI/ADR-RES): 13.6 µM (inactive) | GI50 (LOX IMVI): 18.2 µM (inactive) | GI50 (OVCAR-8): 28.5 µM (inactive) | GI50 (T47D): 13.1 µM (inactive) | GI50 (LXFL 529): 17.1 µM (inactive) | GI50 (SW-620): 15.4 µM (inactive) | GI50 (PC-3): 11.3 µM (inactive) | GI50 (HOP-92): 31.8 µM (inactive) | GI50 (IGROV-1): 45.7 µM (inactive) | GI50 (MDA-N): 3.43 µM (inactive) | GI50 (CAKI-1): 21.3 µM (inactive) | GI50 (KM12): 22.7 µM (inactive) | GI50 (HOP-18): > 100 µM (inactive) | GI50 (DMS-273): 20.4 µM (inactive) | GI50 (M19-MEL): > 34.7 µM (inactive) | GI50 (TK-10): 64.1 µM (inactive) | GI50 (HCT-116): 11.7 µM (inactive) | GI50 (M14): 43.6 µM (inactive) | GI50 (HCT-15): 14.3 µM | GI50 (SR): 3.5 µM (inactive) | GI50 (SF-268): 31.9 µM (inactive) | GI50 (A549): 45.2 µM (inactive) | GI50 (SNB-19): 40.4 µM (inactive) | GI50 (MOLT-4): 3.13 µM (inactive) | GI50 (RXF 631): > 34.8 µM (inactive) | GI50 (MDA-MB-231): 26.9 µM (inactive) | GI50 (786-0): 26.7 µM (inactive) | GI50 (SF-539): 24.2 µM (inactive) | GI50 (MCF7): 40.8 µM (inactive) | GI50 (CCRF-CEM): 4.52 µM (inactive) | GI50 (KM-20L2): 19.9 µM (inactive) | GI50 (SF-295): 33 µM (inactive) | GI50 (ACHN): > 29.4 µM (inactive) | GI50 (EKVX): 52 µM (inactive) | GI50 (HOP-62): 55.7 µM (inactive) | GI50 (SK-MEL-2): 34.2 µM (inactive) | GI50 (MDA-MB-435): 8.32 µM (inactive)
